Tested on: 168753-222-R-J1-PDC complex spheroid viability
Experiment: Anticancer human tumor 168753-222-R-J1-PDC patient-derived bladder carcinoma cell line growth inhibition [CLK]
Conditions: for IC50: curve of first compound; for viability, T/C: stronger effect = lower value
Outline: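 Patient-derived tumor cells grown as complex spheroids with HUVEC endothelial cells and mesenchymal stem cells, treated with drug combinations. Concentrations descend in half-log steps from near clinical Cmax, or from 10 microM if Cmax unknown.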

[1] = second compound 0.0316 µM, first compound 0.0316 µM
[2] = second compound 0.0316 µM, first compound 0.1 µM
[3] = second compound 0.0316 µM, first compound 0.316 µM
[4] = second compound 0.0316 µM, first compound 1 µM
[5] = second compound 0.0316 µM, first compound 3.16 µM
[6] = second compound 0.0316 µM, first compound 10 µM
[7] = second compound 0.1 µM, first compound 0.0316 µM
[8] = second compound 0.1 µM, first compound 0.1 µM
[9] = second compound 0.1 µM, first compound 0.316 µM
[10] = second compound 0.1 µM, first compound 1 µM
[11] = second compound 0.1 µM, first compound 3.16 µM
[12] = second compound 0.1 µM, first compound 10 µM
[13] = second compound 0.316 µM, first compound 0.0316 µM
[14] = second compound 0.316 µM, first compound 0.1 µM
[15] = second compound 0.316 µM, first compound 0.316 µM
[16] = second compound 0.316 µM, first compound 1 µM
[17] = second compound 0.316 µM, first compound 3.16 µM
[18] = second compound 0.316 µM, first compound 10 µM
[19] = second compound 1 µM, first compound 0.0316 µM
[20] = second compound 1 µM, first compound 0.1 µM
[21] = second compound 1 µM, first compound 0.316 µM
[22] = second compound 1 µM, first compound 1 µM
[23] = second compound 1 µM, first compound 3.16 µM
[24] = second compound 1 µM, first compound 10 µM
[25] = second compound 3.16 µM, first compound 0.0316 µM
[26] = second compound 3.16 µM, first compound 0.1 µM
[27] = second compound 3.16 µM, first compound 0.316 µM
[28] = second compound 3.16 µM, first compound 1 µM
[29] = second compound 3.16 µM, first compound 3.16 µM
[30] = second compound 3.16 µM, first compound 10 µM
[31] = second compound 10 µM, first compound 0.0316 µM
[32] = second compound 10 µM, first compound 0.1 µM
[33] = second compound 10 µM, first compound 0.316 µM
[34] = second compound 10 µM, first compound 1 µM
[35] = second compound 10 µM, first compound 3.16 µM
[36] = second compound 10 µM, first compound 10 µM
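Note: viability measured after seven days of drug exposure.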
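Throughout, for viability, T/C: luminescence signal used as surrogate for viable cell amount; 100% = DMSO vehicle control wells.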

CC1(C)CCC(CN2CCN(c3ccc(C(=O)NS(=O)(=O)c4ccc(NCC5CCOCC5)c([N+](=O)[O-])c4)c(Oc4cnc5[nH]ccc5c4)c3)CC2)=C(c2ccc(Cl)cc2)C1 + CNC(=O)c1ccc(Nc2nc(OC3CCCC3)c3c(-c4ccc5nc(C)oc5c4)c[nH]c3n2)c(OC)c1
IC50 (second compound 0.0316 µM): 6520 nM
IC50 (second compound 0.1 µM): 5810 nM
IC50 (second compound 0.316 µM): 4580 nM
IC50 (second compound 1 µM): 45.8 nM
IC50 (second compound 3.16 µM): < 31.6 nM
IC50 (second compound 10 µM): < 31.6 nM
viability, T/C [1]: 109%
viability, T/C [2]: 112%
viability, T/C [3]: 104%
viability, T/C [4]: 109%
viability, T/C [5]: 97%
viability, T/C [6]: 22%
viability, T/C [7]: 99.7%
viability, T/C [8]: 99.5%
viability, T/C [9]: 101%
viability, T/C [10]: 95.7%
viability, T/C [11]: 90.2%
viability, T/C [12]: 14%
viability, T/C [13]: 75.2%
viability, T/C [14]: 77%
viability, T/C [15]: 79.6%
viability, T/C [16]: 80.3%
viability, T/C [17]: 66.7%
viability, T/C [18]: 12.6%
viability, T/C [19]: 50.4%
viability, T/C [20]: 49.5%
viability, T/C [21]: 38.4%
viability, T/C [22]: 25.9%
viability, T/C [23]: 27.2%
viability, T/C [24]: 13.8%
viability, T/C [25]: 23.3%
viability, T/C [26]: 23.1%
viability, T/C [27]: 19.5%
viability, T/C [28]: 20%
viability, T/C [29]: 17.6%
viability, T/C [30]: 23.9%
viability, T/C [31]: 18.1%
viability, T/C [32]: 17.3%
viability, T/C [33]: 17.6%
viability, T/C [34]: 17.3%
viability, T/C [35]: 15.8%
viability, T/C [36]: 20.4%

O=c1[nH]cc(F)c(=O)[nH]1 + CN1CCN(c2cc(C(=O)Nc3cc4cc(-c5cnn(C)c5)ccc4cn3)ccn2)CC1
IC50 (second compound 0.0316 µM): 8930 nM
IC50 (second compound 0.1 µM): 160 nM
IC50 (second compound 0.316 µM): < 31.6 nM
IC50 (second compound 1 µM): < 31.6 nM
IC50 (second compound 3.16 µM): < 31.6 nM
IC50 (second compound 10 µM): < 31.6 nM
viability, T/C [1]: 100%
viability, T/C [2]: 91.9%
viability, T/C [3]: 78.8%
viability, T/C [4]: 108%
viability, T/C [5]: 95.4%
viability, T/C [6]: 45.2%
viability, T/C [7]: 72%
viability, T/C [8]: 62.8%
viability, T/C [9]: 15.2%
viability, T/C [10]: 45.6%
viability, T/C [11]: 36.3%
viability, T/C [12]: 29%
viability, T/C [13]: 10.5%
viability, T/C [14]: 10%
viability, T/C [15]: 8.13%
viability, T/C [16]: 8.71%
viability, T/C [17]: 8.45%
viability, T/C [18]: 8.48%
viability, T/C [19]: 0.22%
viability, T/C [20]: 0.19%
viability, T/C [21]: 0.15%
viability, T/C [22]: 0.18%
viability, T/C [23]: 0.33%
viability, T/C [24]: 0.58%
viability, T/C [25]: 0.97%
viability, T/C [26]: 0.11%
viability, T/C [27]: 0.09%
viability, T/C [28]: 0.19%
viability, T/C [29]: 1.18%
viability, T/C [30]: 1.57%
viability, T/C [31]: 0.09%
viability, T/C [32]: 0.24%
viability, T/C [33]: 0.24%
viability, T/C [34]: 0.82%
viability, T/C [35]: 1.41%
viability, T/C [36]: 1.15%

CCN1CCN(Cc2ccc(Nc3ncc(F)c(-c4cc(F)c5nc(C)n(C(C)C)c5c4)n3)nc2)CC1 + CNC(=O)c1ccc(Nc2nc(OC3CCCC3)c3c(-c4ccc5nc(C)oc5c4)c[nH]c3n2)c(OC)c1
IC50 (second compound 0.0316 µM): > 1000 nM
IC50 (second compound 0.1 µM): > 1000 nM
IC50 (second compound 0.316 µM): 85.5 nM
IC50 (second compound 1 µM): < 3.16 nM
IC50 (second compound 3.16 µM): < 3.16 nM
IC50 (second compound 10 µM): < 3.16 nM
viability, T/C (second compound 0.0316 µM, first compound 0.00316 µM): 103%
viability, T/C (second compound 0.0316 µM, first compound 0.01 µM): 104%
viability, T/C [1]: 79.3%
viability, T/C [2]: 77%
viability, T/C [3]: 65.5%
viability, T/C [4]: 67.1%
viability, T/C (second compound 0.1 µM, first compound 0.00316 µM): 92.9%
viability, T/C (second compound 0.1 µM, first compound 0.01 µM): 88.5%
viability, T/C [7]: 78.8%
viability, T/C [8]: 70.1%
viability, T/C [9]: 70.4%
viability, T/C [10]: 55.7%
viability, T/C (second compound 0.316 µM, first compound 0.00316 µM): 83.6%
viability, T/C (second compound 0.316 µM, first compound 0.01 µM): 77%
viability, T/C [13]: 67.2%
viability, T/C [14]: 46.3%
viability, T/C [15]: 43%
viability, T/C [16]: 44.6%
viability, T/C (second compound 1 µM, first compound 0.00316 µM): 25.2%
viability, T/C (second compound 1 µM, first compound 0.01 µM): 46.9%
viability, T/C [19]: 25.2%
viability, T/C [20]: 22.5%
viability, T/C [21]: 19.4%
viability, T/C [22]: 26.4%
viability, T/C (second compound 3.16 µM, first compound 0.00316 µM): 26.3%
viability, T/C (second compound 3.16 µM, first compound 0.01 µM): 20.9%
viability, T/C [25]: 18.8%
viability, T/C [26]: 15.4%
viability, T/C [27]: 17%
viability, T/C [28]: 17.7%
viability, T/C (second compound 10 µM, first compound 0.00316 µM): 17.4%
viability, T/C (second compound 10 µM, first compound 0.01 µM): 19.6%
viability, T/C [31]: 17.4%
viability, T/C [32]: 14.6%
viability, T/C [33]: 15.1%
viability, T/C [34]: 18.2%
